# Experimental data as given in publication PMC11653702, “Targeting the SPC25/RIOK1/MYH9 Axis to Overcome Tumor Stemness and Platinum Resistance in Epithelial Ovarian Cancer” (Advanced Science, 2024).
# “And” between values parts separate entries of the source, which are not always exact repeats. Identical values can stand only once.
# Experiments:
# [1] = system: OVCAR3 cells; assay: Intraperitoneal tumor model, bioluminescence, OVCAR3; type: in vivo, human EOC cells in BALB/c-Nude mice; settings: SPC25-overexpressing OVCAR3, 6 weeks CDDP
# From the text: (§1) Subsequently, we selected 4 representative EOC cell lines (Figure S1F,G, Supporting Information) and validated the role of SPC25 in mediating platinum resistance in EOC through a series of in vitro and in vivo experiments. […] To further establish an EOC mouse model, we intraperitoneally injected BALB/c‐Nude mice with EOC cells with stable luciferase expression. CDDP treatment (three times per week, a week as a cycle) was initiated when the bioluminescence signal reached 2 × 10^7 p/s/cm^2/sr.
# (§2) In the intraperitoneal tumor model, 1 × 10^6 of the indicated cells stably expressing luciferase were injected intraperitoneally into the mice. Treatment with saline (Vehicle), CDDP (5 mg/kg, 3 times per week for 1 week), CBP1 (10 mg/kg, once in 2 days), or a combination of CDDP (5 mg/kg, 3 times per week for 1 week) and CBP1 (10 mg/kg, once in 2 days) was initiated when the bioluminescence signal reached 2 × 10^7 p/s/cm^2/sr for 6 weeks of continuous treatment cycles. The mice were sacrificed when they became moribund, as determined by an observer blinded to the treatment. Finally, their tumors were excised for qRT‐PCR and Western blotting.
# [2] = system: OVCAR8 cells; assay: Intraperitoneal tumor model, bioluminescence, OVCAR8; type: in vivo, human EOC cells in BALB/c-Nude mice; settings: SPC25-silenced OVCAR8, CDDP
# From the text: as §1, §2
# [3] = system: OVCAR8 cells; assay: Survival of intraperitoneal tumor-bearing nude mice, OVCAR8; type: in vivo, human EOC cells in BALB/c-Nude mice; design: key to Survival status: 0: Alive; 1: Dead; settings: for Survival status / Survival time (Days after CDDP treatment): Balb/c Nude mice; for Survival time (Days after CDDP treatment): >= means alive at this day
# From the text: as §1, §2
# [4] = system: OVCAR3 xenografted tumor tissues; assay: TUNEL assay in intraperitoneal xenografted tumor tissues, OVCAR3; type: in vivo, human EOC cells in BALB/c-Nude mice; settings: for TUNEL+ cell (%): CDDP-treated mice, #1-#6
# Description: as §2
# (§3) TUNEL Assay: The TUNEL staining procedure was conducted on the DeadEnd Fluorometric TUNEL System (#G3250; Promega), according to the manufacturer’s instructions. In brief, paraffin-embedded sections were baked at 65°C for 60 min, followed by three washes in a xylene bath. The sections were then washed in a series of absolute ethanol, 95% ethanol, and 70% ethanol, and finally, in PBS. Then, each section was treated with proteinase K at 37°C for 30 min and washed three times with PBS. Thereafter, the sections were incubated with […] (containing Biotin-11-dUTP and TdT Enzyme) at 37 ℃ for 1 h in the dark, followed by three PBS washes. The samples were subsequently incubated with streptavidin–fluorescein at 37 ℃ for 30 min in the dark, followed by three washes with PBS. DAPI was used to stain the nucleus. Finally, the experimental outcomes were observed under a fluorescence microscope, and the percentages of TUNEL-positive cells were quantified from 10 randomly selected fields.
# [5] = system: OVCAR8 xenografted tumor tissues; assay: TUNEL assay in intraperitoneal xenografted tumor tissues, OVCAR8; type: in vivo, human EOC cells in BALB/c-Nude mice; settings: for TUNEL+ cell (%): #1-#6; for TUNEL assay: animal model OVCAR8
# Description: as §2, §3
# [6] = system: OVCAR8 cells; assay: Cell Counting Kit-8 viability, OVCAR8; type: cell-based, human; settings: SPC25-silenced OVCAR8
# Description: (§4) Cell Viability Assay: The indicated cells were seeded into 96-well plates at a density of 4 × 10^3 cells per well. Next, the Cell Counting Kit-8 reagent (Dojindo) was added to the wells, followed by incubation at 37°C for 2 h in the dark, after which the optical density at 450 nm was determined on a microplate reader (EPOCH2; BioTek, USA). Each cell line was represented using triplicate wells, and the experiment was repeated three times.
# [7] = system: COV644 cells; assay: Cell Counting Kit-8 viability, COV644; type: cell-based, human; settings: SPC25-overexpressing COV644
# Description: as §4
# [8] = system: SKOV3 cells; assay: Cell Counting Kit-8 viability, SKOV3; type: cell-based, human; settings: SPC25-silenced SKOV3
# Description: as §4
# [9] = system: OVCAR3 cells; assay: Annexin V/PI apoptosis, OVCAR3; type: cell-based, human; settings: for PI+/AnnexinV+: replicates #1-#3
# Description: (§5) Fluorescence-Activated Cell Sorting Assay: For apoptosis analysis, we used an Annexin V-FITC/PI Apoptosis Detection Kit (#A211-01; Vazyme Biotech), according to the manufacturer’s instructions. We considered the total proportion of Annexin V-positive cells (quadrants II and III) to be the apoptotic rate, regardless of the PI status. All samples were analyzed on a flow cytometer (cytoFLEX LX; Beckman Coulter, Indianapolis, IN, USA), and percentages of apoptotic cells were analyzed using CytExpert (Beckman Coulter).
# [10] = system: OVCAR8 cells; assay: Annexin V/PI apoptosis, OVCAR8; type: cell-based, human; settings: replicates #1-#3
# Description: as §5
# [11] = system: SKOV3 cells; assay: Annexin V/PI apoptosis, SKOV3; type: cell-based, human; settings: replicates #1-#3
# Description: as §5
# [12] = system: SPC25; assay: Expression of SPC25 across different generation CDX tumor of Blab/c Nude mice in CDDP group (Ct); type: in vivo; settings: for Gapdh (Ct): Gapdh_rep1-3, single replicates; for Expression of SPC25 (Ct): SPC25_rep1-3, single replicates
# From the text: Supplement ADVS-11-2406688-s001.zip/SourceData.xlsx, sheet "Fig1E-1G,S1F" | column: Expression of SPC25 in CDDP-resistant and Parental CDX tumor of Blab/c Nude mice (Ct)
compound,measurement,setting,value
"[NH2][Pt]([NH2])([Cl])[Cl] [CDDP, cisplatin]",CDDP resistance of tumors,[1],notable increase in CDDP resistance
same,"CDDP sensitivity, apoptotic index and survival",[2],"increase in CDDP sensitivity and apoptotic index, as well as prolonged survival"
same,Survival status,"[3]; at the day of E151, animal 1",1
same,Survival status,"[3]; at the day of E152, animal 2",1
same,Survival status,"[3]; at the day of E153, animal 3",1
same,Survival status,"[3]; at the day of E154, animal 4",1
same,Survival status,"[3]; at the day of E155, animal 5",1
same,Survival status,"[3]; at the day of E156, animal 6",1
same,Survival status,"[3]; at the day of E157, animal 7",1
same,Survival time (Days after CDDP treatment),[3]; animal 1,59 days
same,Survival time (Days after CDDP treatment),[3]; animal 2,50 days
same,Survival time (Days after CDDP treatment),[3]; animal 3,52 days
same,Survival time (Days after CDDP treatment),[3]; animal 4,56 days
same,Survival time (Days after CDDP treatment),[3]; animal 5,57 days
same,Survival time (Days after CDDP treatment),[3]; animal 6,60 days
same,Survival time (Days after CDDP treatment),[3]; animal 7,61 days
same,"Survival, days after CDDP treatment","[3]; OVCAR8 sh-SPC25#1, status 0, individual mice",63 days and 79 days and 89 days
same,"Survival, days after CDDP treatment","[3]; OVCAR8 sh-SPC25#1, status 1, individual mice",72 days and 59 days and 60 days
same,"Survival, days after CDDP treatment","[3]; OVCAR8 sh-Scramble, status 1, individual mice",54 days and 50 days and 55 days and 53 days and 57 days
same,TUNEL+ cell (%),[4]; OVCAR3 SPC25-overexpressing,8.84% and 3.44% and 6.27% and 4.43% and 7.25% and 8.02%
same,TUNEL+ cell (%),[4]; OVCAR3 Vector,31.16% and 27.27% and 21.88% and 26.01% and 32.74% and 29.56%
same,TUNEL-positive cells,"[4]; SPC25-overexpressing OVCAR3, CDDP",reduced number
same,TUNEL+ cell (%),"[5]; OVCAR8 sh-SPC25#1, CDDP-treated mice",27.13% and 29.66% and 28.67% and 22.53% and 32.03% and 26.06%
same,TUNEL+ cell (%),"[5]; OVCAR8 sh-Scramble, CDDP-treated mice",5.89% and 11.46% and 4.76% and 9.62% and 7.34% and 8.41%
same,TUNEL assay,[5]; animal #1,10.02%
same,TUNEL assay,[5]; animal #2,8.97%
same,TUNEL assay,[5]; animal #3,6.23%
same,TUNEL assay,[5]; animal #4,11.92%
same,TUNEL assay,[5]; animal #5,7.56%
same,TUNEL assay,[5]; animal #6,8.03%
same,TUNEL assay,[5]; animal #7,7.63%
same,CDDP sensitivity,[6],enhanced CDDP sensitivity
same,cell growth in presence of CDDP,[7],significantly promoted growth
same,CDDP sensitivity,[8],enhanced CDDP sensitivity
same,PI+/AnnexinV+,"[9]; OVCAR3 SPC25, CDDP 10μM",9.75 and 8.73 and 6.45
same,PI+/AnnexinV+,"[9]; OVCAR3 Vector, CDDP 10μM",21.37 and 25.13 and 28.24
same,CDDP-induced apoptosis,[9]; SPC25-overexpressing OVCAR3,considerably reduced
same,PI+/AnnexinV+,"[10]; OVCAR8 Scramble, CDDP 10μM",7.42 and 8.61 and 9.34
same,PI+/AnnexinV+,"[10]; OVCAR8 sh-SPC25#1, CDDP 10μM",24.86 and 27.38 and 21.74
same,PI+/AnnexinV+,"[10]; OVCAR8 sh-SPC25#2, CDDP 10μM",24.57 and 21.02 and 29.26
same,PI+/AnnexinV+,"[11]; SKOV3 Scramble, CDDP 10μM",8.18 and 6.89 and 9.75
same,PI+/AnnexinV+,"[11]; SKOV3 sh-SPC25#1, CDDP 10μM",30.36 and 26.95 and 22.58
same,PI+/AnnexinV+,"[11]; SKOV3 sh-SPC25#2, CDDP 10μM",29.63 and 24.64 and 23.77
same,Gapdh (Ct),[12]; 1st generation,17.013 Ct and 17.354 Ct and 17.197 Ct
same,Expression of SPC25 (Ct),[12]; 1st generation,27.496 Ct and 27.737 Ct and 27.628 Ct
same,Gapdh (Ct),[12]; 2nd generation,16.968 Ct and 16.875 Ct and 17.154 Ct
same,Expression of SPC25 (Ct),[12]; 2nd generation,26.835 Ct and 27.032 Ct and 26.963 Ct
same,Gapdh (Ct),[12]; 3rd generation,16.826 Ct and 17.002 Ct and 16.952 Ct
same,Expression of SPC25 (Ct),[12]; 3rd generation,26.448 Ct and 26.397 Ct and 26.314 Ct
same,Gapdh (Ct),[12]; 4th generation,16.654 Ct and 16.763 Ct and 16.924 Ct
same,Expression of SPC25 (Ct),[12]; 4th generation,25.574 Ct and 25.623 Ct and 25.706 Ct
